The values that follow come from PubChem BioAssay AID258 (DTP/NCI, 2004).

“And” between values parts separate entries of the source, which are not always exact repeats. Equal entries are not always repeated. Toxic doses and inconclusive results are not listed.

The experiment relates to CD2F1 mice, L1210 leukemia sc, survival T/C. Description: NCI In Vivo Anticancer Drug Screen. Data for tumor model L1210 Leukemia (subcutaneous) in CD2F1 (CDF1) mice. The settings on record: endpoint: median survival time, higher = longer survival. The method in brief: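 T/C ratio: treated-group survival or tumor size over vehicle-control group measurement, in mice carrying transplanted tumors.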

Regarding `C1CN1c1nc(N2CC2)nc(N2CC2)n1`, the T/C is 110 % of control (dose: 0.1 mg/kg/injection, schedule: Q01DX009 (ip), vehicle: saline); 108 % of control (dose: 0.1 mg/kg/injection, schedule: Q01DX009 (sc), vehicle: saline); 117 % of control (dose: 0.2 mg/kg/injection, schedule: Q01DX009 (ip), vehicle: saline); 118 % of control (dose: 0.2 mg/kg/injection, schedule: Q01DX009 (sc), vehicle: saline); 114 % of control (dose: 0.27 mg/kg/injection, schedule: Q01DX009 (ip), vehicle: saline); 110 % of control (dose: 0.27 mg/kg/injection, schedule: Q01DX009 (sc), vehicle: saline). The T/C by setting is: (dose: 0.4 mg/kg/injection, schedule: Q01DX009 (ip), vehicle: saline) 151 % of control; (dose: 0.45 mg/kg/injection, schedule: Q01DX009 (ip), vehicle: saline) 157 % of control; (dose: 0.45 mg/kg/injection, schedule: Q01DX009 (sc), vehicle: saline) 168 % of control; (dose: 0.6 mg/kg/injection, schedule: Q01DX009 (ip), vehicle: saline) 184 % of control; (dose: 0.6 mg/kg/injection, schedule: Q01DX009 (sc), vehicle: saline) 180 % of control; (dose: 0.8 mg/kg/injection, schedule: Q01DX009 (ip), vehicle: saline) 119 % of control. The T/C was 101 % of control (dose: 0.9 mg/kg/injection, schedule: Q01DX009 (ip), vehicle: saline) and 113 % of control (dose: 0.9 mg/kg/injection, schedule: Q01DX009 (sc), vehicle: saline).

As to `CSCS(=O)C[C@H](CO)NC(=O)/C=C/c1c(C)[nH]c(=O)[nH]c1=O` (some centres undefined), the T/C by setting is: (dose: 1.08 mg/kg/injection, schedule: Q01DX Z (sc), vehicle: saline) 110 % of control; (dose: 1.8 mg/kg/injection, schedule: Q01DX Z (sc), vehicle: saline) 110 % of control; (dose: 3.0 mg/kg/injection, schedule: Q01DX Z (sc), vehicle: saline) 100 % of control; (dose: 5.0 mg/kg/injection, schedule: Q01DX Z (sc), vehicle: saline) 90 % of control.

With `O=c1[nH]c(=O)n(C2CC(O)C(CO)O2)cc1F` (centres undefined), the T/C was 107 % of control (dose: 5.0 mg/kg/injection, schedule: Q01DX009 (ip), vehicle: saline); 104 % of control (dose: 5.0 mg/kg/injection, schedule: Q01DX009 (sc), vehicle: saline); 108 % of control (dose: 10.0 mg/kg/injection, schedule: Q01DX009 (ip), vehicle: saline); 109 % of control (dose: 10.0 mg/kg/injection, schedule: Q01DX009 (sc), vehicle: saline); 112 % of control (dose: 15.6 mg/kg/injection, schedule: Q01DX006 (ip), vehicle: saline); 118 % of control (dose: 15.6 mg/kg/injection, schedule: Q01DX009 (ip), vehicle: saline). Moreover, the T/C (dose: 20.0 mg/kg/injection, schedule: Q01DX009 (ip), vehicle: saline) is 119 % of control; the T/C (dose: 20.0 mg/kg/injection, schedule: Q01DX009 (sc), vehicle: saline) was 106 % of control and 121 % of control; the T/C (dose: 30.0 mg/kg/injection, schedule: Q01DX009 (sc), vehicle: saline) is 107 % of control; the T/C (dose: 31.3 mg/kg/injection, schedule: Q01DX006 (ip), vehicle: saline) was 106 % of control; the T/C (dose: 31.3 mg/kg/injection, schedule: Q01DX009 (ip), vehicle: saline) was 118 % of control; the T/C (dose: 31.3 mg/kg/injection, schedule: Q02DX005 (ip), vehicle: saline) is 112 % of control. Besides, the T/C runs as follows: (dose: 31.3 mg/kg/injection, schedule: Q04DX003 (ip), vehicle: saline) 112 % of control; (dose: 40.0 mg/kg/injection, schedule: Q01DX009 (ip), vehicle: saline) 122 % of control; (dose: 40.0 mg/kg/injection, schedule: Q01DX009 (sc), vehicle: saline) 122 % of control; (dose: 60.0 mg/kg/injection, schedule: Q01DX009 (ip), vehicle: saline) 124 % of control; (dose: 62.5 mg/kg/injection, schedule: Q01DX001 (ip), vehicle: saline) 112 % of control; (dose: 62.5 mg/kg/injection, schedule: Q04DX003 (ip), vehicle: saline) 100 % of control. The T/C (dose: 80.0 mg/kg/injection, schedule: Q01DX009 (ip), vehicle: saline) was 118 % of control; the T/C (dose: 120.0 mg/kg/injection, schedule: Q01DX009 (ip), vehicle: saline) is 110 % of control; the T/C (dose: 120.0 mg/kg/injection, schedule: Q01DX009 (sc), vehicle: saline) is 106 % of control; the T/C (dose: 125.0 mg/kg/injection, schedule: Q01DX001 (ip), vehicle: saline) is 112 % of control; the T/C (dose: 125.0 mg/kg/injection, schedule: Q01DX009 (ip), vehicle: saline) is 150 % of control; the T/C (dose: 125.0 mg/kg/injection, schedule: Q02DX005 (ip), vehicle: saline) is 118 % of control. Besides, the T/C reads like this: (dose: 125.0 mg/kg/injection, schedule: Q04DX003 (ip), vehicle: saline) 112 % of control; (dose: 130.0 mg/kg/injection, schedule: Q01DX Z (sc), vehicle: saline) 116 % of control; (dose: 160.0 mg/kg/injection, schedule: Q01DX009 (ip), vehicle: saline) 106 % of control and 123 % of control; (dose: 160.0 mg/kg/injection, schedule: Q01DX009 (sc), vehicle: saline) 112 % of control; (dose: 216.0 mg/kg/injection, schedule: Q01DX Z (sc), vehicle: saline) 116 % of control; (dose: 240.0 mg/kg/injection, schedule: Q01DX009 (ip), vehicle: saline) 96 % of control. For the same compound, the T/C by setting is: (dose: 250.0 mg/kg/injection, schedule: Q01DX006 (ip), vehicle: saline) 162 % of control; (dose: 250.0 mg/kg/injection, schedule: Q01DX009 (ip), vehicle: saline) 162 % of control; (dose: 250.0 mg/kg/injection, schedule: Q02DX005 (ip), vehicle: saline) 150 % of control; (dose: 360.0 mg/kg/injection, schedule: Q01DX Z (sc), vehicle: saline) 116 % of control; (dose: 500.0 mg/kg/injection, schedule: Q02DX005 (ip), vehicle: saline) 156 % of control; (dose: 500.0 mg/kg/injection, schedule: Q04DX003 (ip), vehicle: saline) 150 % of control. Further, the T/C was 108 % of control (dose: 600.0 mg/kg/injection, schedule: Q01DX Z (sc), vehicle: saline) and 150 % of control (dose: 1000.0 mg/kg/injection, schedule: Q01DX001 (ip), vehicle: saline).

For the compound `N#CC(c1ccccc1)c1cccc2ccccc12` (centres undefined), the T/C is 109 % of control (dose: 23.0 mg/kg/injection, schedule: Q01DX Z (sc), vehicle: methylcellulose (MC)); 119 % of control (dose: 39.0 mg/kg/injection, schedule: Q01DX Z (sc), vehicle: methylcellulose (MC)); 152 % of control (dose: 65.0 mg/kg/injection, schedule: Q01DX Z (sc), vehicle: methylcellulose (MC)).

`O=C(Nc1ccc(C2=NCCN2)cc1)c1ccc(C(=O)Nc2ccc(C3=NCCN3)cc2)c(Cl)c1`: the T/C (dose: 5.0 mg/kg/injection, schedule: Q01DX Z (iv), vehicle: water) is 100 % of control; the T/C (dose: 8.4 mg/kg/injection, schedule: Q01DX Z (iv), vehicle: water) was 100 % of control; the T/C (dose: 8.4 mg/kg/injection, schedule: Q01DX Z (sc), vehicle: water) was 120 % of control and 227 % of control; the T/C (dose: 14.0 mg/kg/injection, schedule: Q01DX Z (iv), vehicle: water) was 100 % of control; the T/C (dose: 14.0 mg/kg/injection, schedule: Q01DX Z (sc), vehicle: water) was 188 % of control and 195 % of control and 233 % of control; the T/C (dose: 23.0 mg/kg/injection, schedule: Q01DX Z (sc), vehicle: water) is 205 % of control and 220 % of control and 261 % of control. Further, the T/C reads like this: (dose: 39.0 mg/kg/injection, schedule: Q01DX Z (iv), vehicle: water) 111 % of control; (dose: 39.0 mg/kg/injection, schedule: Q01DX Z (sc), vehicle: water) 211 % of control and 225 % of control and 183 % of control; (dose: 65.0 mg/kg/injection, schedule: Q01DX Z (iv), vehicle: water) 155 % of control; (dose: 65.0 mg/kg/injection, schedule: Q01DX Z (sc), vehicle: water) 188 % of control and 200 % of control and 166 % of control.
